Reference: ChEMBL document CHEMBL3885861, “Open TG-GATES”

Species: Rattus norvegicus
Assay: Open TG-GATES - Regimen: Daily Repeat
Assay type: toxicity, organism-based, Sprague-Dawley
Set-up: regimen Daily Repeat, gender Male, age 6 weeks
Details: in vivo, po, 30 mg/kg, […], route gavage, dose level Low; for KIDNEY_L / KIDNEY_R / KIDNEY_TOTAL: tissue Kidney; for LIVER: tissue Liver; for A/G / ALP / ALT / AST / BUN / CRE / Ca / Cl / DBIL / GLC / IP / K / LDH / Na / PL / RALB / TBIL / TC / TG / TP / gamma-GTP: tissue Plasma

## CCOC(=O)C(C)(C)Oc1ccc(Cl)cc1 [CLOFIBRATE]
Tissue Blood, time 28 day
  Lym: 81.8%
  MCH: 18.5 pg
  MCHC: 34.7%
  MCV: 53.4 fL
  Mono: 2.6%
  Neu: 14.2%
  PT: 12.4 s
  Plat: 119.1 x10_4/uL
  RBC: 800 x10_4/ul
  Ret: 2.2%
  WBC: 140.9 x10_2/uL
Time 7 day
  KIDNEY_L: 1.1 g
  KIDNEY_R: 1.1 g
  KIDNEY_TOTAL: 2.2 g
  LIVER: 12.4 g
  A/G: 1.6
  ALP: 883.2 IU/L
  ALT: 35.8 IU/L
  AST: 72 IU/L
  BUN: 16 mg/dL
  CRE: 0.4 mg/dL
  Ca: 10.4 mg/dL
  Cl: 103.2 meq/L
  DBIL: 0.07 mg/dL
  GLC: 213 mg/dL
  IP: 6.8 mg/dL
  K: 3.5 meq/L
  LDH: 245 IU/L
  Na: 141.4 meq/L
  PL: 127 mg/dL
  RALB: 3.6 g/dL
  TBIL: 0.1 mg/dL
  TC: 60 mg/dL
  TG: 96 mg/dL
  TP: 5.8 g/dL
  gamma-GTP: 0.8 IU/L
Time 14 day
  KIDNEY_L: 1.3 g
  KIDNEY_R: 1.3 g
  KIDNEY_TOTAL: 2.6 g
  LIVER: 16 g
  A/G: 1.4
  ALP: 845.6 IU/L
  ALT: 32.4 IU/L
  AST: 56.8 IU/L
  BUN: 16.4 mg/dL
  CRE: 0.4 mg/dL
  Ca: 10.4 mg/dL
  Cl: 101.4 meq/L
  DBIL: 0.088 mg/dL
  GLC: 229.8 mg/dL
  IP: 7 mg/dL
  K: 4 meq/L
  LDH: 183.4 IU/L
  Na: 140.2 meq/L
  PL: 145.6 mg/dL
  RALB: 3.4 g/dL
  TBIL: 0.1 mg/dL
  TC: 64.8 mg/dL
  TG: 135 mg/dL
  TP: 5.8 g/dL
  gamma-GTP: 0.8 IU/L
Time 28 day
  KIDNEY_L: 1.5 g
  KIDNEY_R: 1.5 g
  KIDNEY_TOTAL: 3 g
  LIVER: 16.9 g
  A/G: 1.4
  ALP: 741.4 IU/L
  ALT: 41 IU/L
  AST: 68.4 IU/L
  BUN: 14.6 mg/dL
  CRE: 0.4 mg/dL
  Ca: 10.3 mg/dL
  Cl: 102.2 meq/L
  DBIL: 0.084 mg/dL
  GLC: 207.8 mg/dL
  IP: 6.1 mg/dL
  K: 3.9 meq/L
  LDH: 165.8 IU/L
  Na: 140.4 meq/L
  PL: 134 mg/dL
  RALB: 3.4 g/dL
  TBIL: 0.1 mg/dL
  TC: 61.6 mg/dL
  TG: 121.6 mg/dL
  TP: 5.9 g/dL
  gamma-GTP: 0.8 IU/L
